These are literature values, as cited in paper PMC10783014, “Structure-based virtual screening and in vitro validation of inhibitors of cyclic dinucleotide phosphodiesterases ENPP1 and CdnP” (Microbiology Spectrum, 2023).

Molecules are shown by their SMILES.

In this series the test system is CdnP. Particulars: cited from earlier work.
Consider `COc1ccc([C@]2(C#N)CC[C@@H](C(=O)O)CC2)cc1OC1CCCC1` [cilomilast], for which the CdnP inhibition result is “demonstrated CdnP inhibition”.
Take `O=C1CCc2cc(OCCCCc3nnnn3C3CCCCC3)ccc2N1` [cilostazol]: the CdnP inhibition entry is listed as “demonstrated CdnP inhibition”.
As for `CCCc1nn(C)c2c(=O)[nH]c(-c3cc(S(=O)(=O)N4CCN(C)CC4)ccc3OCC)nc12` [sildenafil], the CdnP inhibition result is listed as “demonstrated CdnP inhibition”.
Turning to `CN1CC(=O)N2[C@H](c3ccc4c(c3)OCO4)c3[nH]c4ccccc4c3C[C@@H]2C1=O` [tadalafil], the CdnP inhibition entry is reported as “demonstrated CdnP inhibition”.
